# According to US20070128217A1 (priority 2003, published 2007):
# Experiments:
# [1] = system: control sera (pooled serum of ten healthy LUMC hospital workers; commercial negative donor pooled serum from the Dutch bloodbank); format: binding, human; set-up: Binding of Control serum LUMC to linear peptides / Binding of Control serum Blood-bank to linear peptides / Binding of Control serum LUMC to looped peptides / Binding of Control Serum Blood-Bank to Looped peptides / Binding of Control serum LUMC to linear peptides of the protein M of SARS-CoV Urbani / Binding of Control serum Blood-bank to linear peptides of the protein M of SARS-CoV Urbani / Binding of Control serum LUMC to looped peptides of the protein M of SARS-CoV Urbani / Binding of Control Serum Blood-Bank to Looped peptides of the protein M of SARS-CoV Urbani: unit not given here
# [2] = system: rabbit serum obtained by immunizing a rabbit with the SARS-CoV strain Frankfurt 1; format: binding; set-up: Binding of a rabbit serum to linear peptides / Binding of a rabbit serum to looped peptides / Rabbit serum linear peptides / Rabbit serum looped peptides / Binding of a rabbit serum to linear peptides of protein N of SARS-CoV Urbani (Rabbit serum linear peptides) / Binding of a rabbit serum to looped/cyclic peptides of protein N of SARS-CoV Urbani (Rabbit serum looped peptides): unit not given here
# [3] = system: antibodies in sera from SARS patients (sera 1a, 1b, 2, 6, 37, 62, London, SARS-yellow, SARS-green); format: binding, human; set-up: Binding of serum 6 to linear peptides of protein X1 of SARS-CoV Urbani / Binding of serum 37 to linear peptides of protein X1 of SARS-CoV Urbani / Binding of serum 6 to looped/cyclic peptide (PEPSCAN-ELISA) / Binding of serum 37 to looped/cyclic peptide (PEPSCAN-ELISA) / Binding of serum 37 to looped/cyclic peptides of protein X1 of SARS-CoV Urbani / Binding of serum 6 to linear peptides of protein X2 / Binding of serum 37 to linear peptides of protein X2 / Binding of serum 37 to looped/cyclic peptides of protein X2 of SARS-CoV Urbani / Binding of serum 6 to linear peptides of protein M of SARS-CoV Urbani / Binding of serum 37 to linear peptides of protein M of SARS-CoV Urbani / Binding of serum 6 to looped/cyclic peptides of protein M of SARS-CoV Urbani / Binding of serum 37 to looped/cyclic peptides of protein M of SARS-CoV Urbani / Binding of serum 6 to linear peptides of protein X3 of SARS-CoV Urbani / Binding of serum 37 to linear peptides of protein X3 of SARS-CoV Urbani / Binding of serum 37 to looped/cyclic peptides of protein X3 of SARS-CoV Urbani / Binding of serum 6 to linear peptides of protein X4 of SARS-CoV Urbani / Binding of serum 37 to linear peptides of protein X4 of SARS-CoV Urbani / Binding of serum 37 to looped/cyclic peptides of protein X4 of SARS-CoV Urbani / Binding of serum 6 to linear peptides of protein X5 of SARS-CoV Urbani / Binding of serum 37 to linear peptides of protein X5 of SARS-CoV Urbani / Binding of serum 37 to looped/cyclic peptides of protein X5 of SARS-CoV Urbani / Binding of serum 6 to linear peptides of protein N of SARS-CoV Urbani / Binding of serum 37 to linear peptides of protein N of SARS-CoV Urbani / Binding of serum 6 to linear peptide (PEPSCAN-ELISA) / Binding of serum 1a to looped/cyclic peptides of protein N of SARS-CoV Urbani / Binding of serum 1b to looped/cyclic peptides of protein N of SARS-CoV Urbani / Binding of serum 2 to looped/cyclic peptides of protein N of SARS-CoV Urbani / Binding of serum 6 to looped/cyclic peptides of protein N of SARS-CoV Urbani / Binding of serum 37 to looped/cyclic peptides of protein N of SARS-CoV Urbani / Binding of serum 62 to looped/cyclic peptides of protein N of SARS-CoV Urbani / Binding of serum London to looped/cyclic peptides of protein N of SARS-CoV Urbani / Binding of serum SARS-green to looped/cyclic peptides of protein N of SARS-CoV Urbani: unit not given here
sequence,measurement,setting,value
AQFLYLYALIYFLQC,Binding of Control Serum Blood-Bank to Looped peptides,[1],0.4
same,Binding of Control serum Blood-bank to linear peptides,[1],0.4
same,Binding of Control serum LUMC to linear peptides,[1],0.5
same,Binding of Control serum LUMC to looped peptides,[1],0.5
same,Binding of a rabbit serum to linear peptides,[2],0.2
same,Binding of a rabbit serum to looped peptides,[2],0.5
same,Binding of serum 1a to linear peptides of protein X1 of SARS-CoV Urbani,[3],0.6
same,Binding of serum 1a to looped/cyclic peptide (PEPSCAN-ELISA),[3],0.5
same,Binding of serum 1b to linear peptides of protein X1 of SARS-CoV Urbani,[3],0.5
same,Binding of serum 1b to looped/cyclic peptide (PEPSCAN-ELISA),[3],0.3
same,Binding of serum 2 to linear peptides of protein X1 of SARS-CoV Urbani,[3],0.5
same,Binding of serum 2 to looped/cyclic peptide (PEPSCAN-ELISA),[3],0.4
same,Binding of serum 6 to linear peptides of protein X1 of SARS-CoV Urbani,[3],0.3
same,Binding of serum 6 to looped/cyclic peptide (PEPSCAN-ELISA),[3],0.2
same,Binding of serum 37 to linear peptides of protein X1 of SARS-CoV Urbani,[3],0.6
same,Binding of serum 37 to looped/cyclic peptide (PEPSCAN-ELISA),[3],0.4
same,Binding of serum 62 to linear peptides of protein X1 of SARS-CoV Urbani,[3],0.4
same,Binding of serum 62 to looped/cyclic peptide (PEPSCAN-ELISA),[3],0.5
same,Binding of serum London to linear peptides of protein X1 of SARS-CoV Urbani,[3],0.2
same,Binding of serum London to looped/cyclic peptide (PEPSCAN-ELISA),[3],0.2
same,Binding of serum SARS-green to linear peptides of protein X1 of SARS-CoV Urbani,[3],0.2
same,Binding of serum SARS-green to looped/cyclic peptide (PEPSCAN-ELISA),[3],0.3
same,Binding of serum SARS-yellow to linear peptides of protein X1 of SARS-CoV Urbani,[3],0.4
same,Binding of serum SARS-yellow to looped/cyclic peptide (PEPSCAN-ELISA),[3],0.3
DFQVTIAEILIIIMR,Binding of Control Serum Blood-Bank to Looped peptides of the protein X3 of SARS-CoV Urbani,[1],0.8
same,Binding of Control serum Blood-bank to linear peptides of the protein X3 of SARS-CoV Urbani,[1],0.8
same,Binding of Control serum LUMC to linear peptides of the protein X3 of SARS-CoV Urbani,[1],0.6
same,Binding of Control serum LUMC to looped peptides of the protein X3 of SARS-CoV Urbani,[1],0.7
same,Rabbit serum linear peptides,[2],0.3
same,Rabbit serum looped peptides,[2],0.3
same,Binding of serum 1a to linear peptides of protein X3 of SARS-CoV Urbani,[3],0.7
same,Binding of serum 1a to looped/cyclic peptides of protein X3 of SARS-CoV Urbani,[3],0.7
same,Binding of serum 1b to linear peptides of protein X3 of SARS-CoV Urbani,[3],0.5
same,Binding of serum 1b to looped/cyclic peptides of protein X3 of SARS-CoV Urbani,[3],0.4
same,Binding of serum 2 to linear peptides of protein X3 of SARS-CoV Urbani,[3],0.6
same,Binding of serum 2 to looped/cyclic peptides of protein X3 of SARS-CoV Urbani,[3],0.7
same,Binding of serum 6 to linear peptides of protein X3 of SARS-CoV Urbani,[3],0.5
same,Binding of serum 6 to looped/cyclic peptides of protein X3 of SARS-CoV Urbani,[3],0.4
same,Binding of serum 37 to linear peptides of protein X3 of SARS-CoV Urbani,[3],0.6
same,Binding of serum 37 to looped/cyclic peptides of protein X3 of SARS-CoV Urbani,[3],0.7
same,Binding of serum 62 to linear peptides of protein X3 of SARS-CoV Urbani,[3],0.6
same,Binding of serum 62 to looped/cyclic peptides of protein X3 of SARS-CoV Urbani,[3],0.5
same,Binding of serum London to linear peptides of protein X3 of SARS-CoV Urbani,[3],0.6
same,Binding of serum London to looped/cyclic peptides of protein X3 of SARS-CoV Urbani,[3],0.2
same,Binding of serum SARS-green to linear peptides of protein X3 of SARS-CoV Urbani,[3],0.4
same,Binding of serum SARS-green to looped/cyclic peptides of protein X3 of SARS-CoV Urbani,[3],0.2
same,Binding of serum SARS-yellow to linear peptides of protein X3 of SARS-CoV Urbani,[3],0.5
same,Binding of serum SARS-yellow to looped/cyclic peptides of protein X3 of SARS-CoV Urbani,[3],0.7
RSMWSFNPETNILLN,Binding of Control Serum Blood-Bank to Looped peptides of the protein M of SARS-CoV Urbani,[1],0.7
same,Binding of Control serum Blood-bank to linear peptides of the protein M of SARS-CoV Urbani,[1],0.8
same,Binding of Control serum LUMC to linear peptides of the protein M of SARS-CoV Urbani,[1],0.5
same,Binding of Control serum LUMC to looped peptides of the protein M of SARS-CoV Urbani,[1],0.7
same,Rabbit serum linear peptides,[2],0.4
same,Rabbit serum looped peptides,[2],0.3
same,Binding of serum 1a to linear peptides of protein M of SARS-CoV Urbani,[3],0.8
same,Binding of serum 1a to looped/cyclic peptides of protein M of SARS-CoV Urbani,[3],0.8
same,Binding of serum 1b to linear peptides of protein M of SARS-CoV Urbani,[3],0.6
same,Binding of serum 1b to looped/cyclic peptides of protein M of SARS-CoV Urbani,[3],0.4
same,Binding of serum 2 to linear peptides of protein M of SARS-CoV Urbani,[3],0.6
same,Binding of serum 2 to looped/cyclic peptides of protein M of SARS-CoV Urbani,[3],0.8
same,Binding of serum 6 to linear peptides of protein M of SARS-CoV Urbani,[3],0.3
same,Binding of serum 6 to looped/cyclic peptides of protein M of SARS-CoV Urbani,[3],0.7
same,Binding of serum 37 to linear peptides of protein M of SARS-CoV Urbani,[3],0.8
same,Binding of serum 37 to looped/cyclic peptides of protein M of SARS-CoV Urbani,[3],0.8
same,Binding of serum 62 to linear peptides of protein M of SARS-CoV Urbani,[3],0.7
same,Binding of serum 62 to looped/cyclic peptides of protein M of SARS-CoV Urbani,[3],0.8
same,Binding of serum London to linear peptides of protein M of SARS-CoV Urbani,[3],0.3
same,Binding of serum London to looped/cyclic peptides of protein M of SARS-CoV Urbani,[3],0.2
same,Binding of serum SARS-green to linear peptides of protein M of SARS-CoV Urbani,[3],0.2
same,Binding of serum SARS-green to looped/cyclic peptides of protein M of SARS-CoV Urbani,[3],0.4
same,Binding of serum SARS-yellow to linear peptides of protein M of SARS-CoV Urbani,[3],0.1
same,Binding of serum SARS-yellow to looped/cyclic peptides of protein M of SARS-CoV Urbani,[3],0.7
